Data as given in BindingDB's records for doi:10.1021/jm00101a009 (University of Minnesota, 1992).

Test: The compound was evaluated for binding affinity against Opioid receptor delta 1 in guinea pig brain membrane using [3H]- DPDPE as ligand
`Oc1ccc2c3c1O[C@H]1c4[nH]c5ccccc5c4C[C@H]4C(C2)NCC[C@]314` showed a Ki of 935 nM.
With `Oc1ccc2c3c1O[C@H]1c4[nH]c5ccccc5c4C[C@@]4(O)C(C2)NCC[C@]314` the Ki was 11 nM.
In the case of `Oc1ccc2c3c1O[C@H]1c4[nH]c5ccccc5c4C[C@H]4C(C2)N(CCc2ccccc2)CC[C@]314` [22-phenethyl-14-oxa-11,22-diazaheptacyclo[13.9.1.01,13.02,21.04,12.05,10.019,25]pentacosa-4(12),5(10),6,8,15(25),16,18-heptaen-16-ol], the Ki is reported as 22 nM.
In the case of `Oc1ccc2c3c1O[C@H]1c4[nH]c5ccccc5c4C[C@@]4(O)C(C2)N(CCc2ccccc2)CC[C@]314` [22-phenethyl-14-oxa-11,22-diazaheptacyclo[13.9.1.01,13.02,21.04,12.05,10.019,25]pentacosa-4(12),5(10),6,8,15(25),16,18-heptaene-2,16-diol], the Ki is reported as 11 nM.
